The source of these data is US5189046A, “Protein kinase C modulators” (Nova Pharmaceutical Corporation, priority 1991, dated 1993).

Structures can show the parent of a compound that is named as a salt. Where two headings read alike, the source gives them in different places.

Assay [1] concerns protein kinase C from mouse brains. As to the kind of experiment: 3H-Phorbol dibutyrate binding (inhibition of binding of phorbol ester to protein kinase C). To be noted: for IC50: IC50 determined with program EBDA. Here is the method: The ability of active compounds to inhibit the binding of phorbol ester to protein kinase C from mouse brains was measured as follows. Mouse brains were homogenized in ice-cold 50 mM Tris buffer, pH 7.4, containing 0.5 mM CaCl2, in a 15 mL Dounce homogenizer with 10 gentle strokes. The homogenate was centrifuged at 100,000×g for 1 hour at 4° C. The pellets were resuspended in 25 mL of the same ice-cold buffer and protein concentration was adjusted to 0.4 mg/mL. To each binding tube was added […] of the buffer, […] of [20-^3 H]Phorbol 12,13-dibutyrate, […] final concentration in assay, […] of test drug or displacing ligand, 50 uL of 50 mM Tris, pH 7.4 at 25° C. containing 1% bovine serum albumin, and […] enzyme preparation. Tubes were incubated at 37° C. for 30 minutes, then terminated by filtration onto Whatman GF/B glass fiber filters followed by washing with 2 mL ice-cold 50 mM Tris, pH 7.4, four times. Nonspecific binding was defined as that binding occurring in the presence of 1 mM phorbol ester. Percent inhibition was determined for each inhibitor candidate, and IC50 values were determined using the computer program "EBDA".

Assay [2] deals with Protein kinase C from mouse brain. The assay can be described thus: Inhibition of PKC phosphorylation of histone. Type of assay: biochemical. The procedure:
Protein kinase C from mouse brain was used in the screening protocol since it contains several isozymes of the enzyme. The tissue was prepared by homogenizing two mouse brains minus the cerebelli in 5 ml of 25 mM Tris-HCl,pH 7.4, containing 2 mM ethylenediamine tetraacetic acid (EDTA) and 1 mM ethylene glycol tetraacetic acid (EGTA), using a polytron at setting 5 for 15 seconds. The homogenate was centrifuged for 1 hour at 50,000×g at 4° C. The supernatant was used as the source of enzyme. The standard reaction mixture (250 μl) contained 20 mM Tris-HCl,pH 7.5, 10 mM Mg (CH3 COO)2, 400 μM CaCl2, 0.1 mM EGTA, […] [γ-^32 P] ATP (1200 cpm/pmol), 100 μg/ml phosphatidylserine, 10 μM histone, 1 μM phorbol 12-myristate-13-acetate, 10 μl enzyme preparation and 25 μl water or test drug. The mixture was incubated at 30° C. for 5 minutes. Mixtures were removed to an ice-bath, a 50 μl aliquot of each was added to Whatman P81 paper and washed in 10% TCA for 20 minutes. The paper was then washed with ethanol, followed by ethyl ether and finally air dryed. PKC activity was quantitated by liquid scintillation counting.

Assay [3] concerns Protein kinase A catalytic subunit. The assay can be described thus: Inhibition of protein kinase A phosphorylation of histone. To be noted: for PKA percent inhibition (phosphorylation of histone): percent inhibition at the maximum concentration tested 100 μM. The format is biochemical.
Procedure: Protein kinase A activity was determined as follows. Protein kinase A catalytic subunit was purchased from Sigma Chemical Company. […] Incubation was at 30° C. for 5 minutes, then the assay was completed as described for protein kinase C above.
[4] abbreviates: mouse brain PKC, histone, 30° C., 5 minutes, read-out: PKC IC50 (phosphorylation of histone).
Where [5] appears, read: text summary of Table IV, read-out: IC50, inhibition of phosphorylation by PKC.

In the case of `CCCCCCCCCCCCC(=O)N1CCCCC1CNC(=O)[C@@H](N)CCCCN` (stereo partly shown) [2,6-diamino-N-([1-(1-oxotridecyl)-2-piperidinyl]methyl)hexan] [2,6-Diamino-N-([1-(1-oxotridecyl)-2-piperidinyl]methyl)hexanamide dihydrochloride], the “% inhibition @ 100 μM (3H-phorbol dibutyrate binding)” value (“% inhibition @ 100 μM” for short) in assay [1] (dihydrochloride) is on record as 22%. In addition, the IC50 in assay [1] (dihydrochloride) is 191 µM; in assay [2] (setting [4]), 13 µM; in assay [2] (setting [5]), 13 µM. In addition, the “PKA percent inhibition (phosphorylation of histone)” value (shortened to “PKA percent inhibition”) in assay [3] worked out at 0%.
As to `CCCCCCCCCCCCC(=O)N1CCCCC1CNC(=O)[C@@H](N)CCCCN` (stereo partly shown) [2,6-diamino-N-([1-(1-oxotridecyl)-2-piperidinyl]methylhexana] [2,6-diamino-N-([1-(1-oxotridecyl)-2-piperidinyl]methylhexanamidedihydrochloride], in assay [1] (dihydrochloride), the “% inhibition @ 100 μM” value is given as 47% and the half-inhibitory concentration (IC50) was 133 µM.
Regarding `CCCCCCCCCCCCC(=O)N1CCCCC1CNC(=O)[C@@H](N)CO` (stereo partly shown) [2-Amino-3-hydroxy-N-([1-(1-oxotridecyl)-2-piperidinyl]methyl)propanamide hydrochloride], in assay [1], the “% inhibition @ 100 μM” value is 9%. In addition, the IC50 in assay [2] (setting [4]) turned out to be 44 µM. The “PKA percent inhibition” value in assay [3] is recorded as 0%.
Turning to `CCCCCCCCCCCCC(=O)N1CCCCC1CNC(=O)[C@@H](N)Cc1c[nH]cn1` (stereo partly shown) [2-Amino-N-([1-(1-oxotridecyl)-2-piperidinyl]methyl)-3-(1H-imidazol-4-yl)propanamide dihydrochloride], in assay [1], the “% inhibition @ 100 μM” value was determined as 28% and the IC50 worked out at 343 µM. In addition, in assay [2] (setting [4]), the IC50 turned out to be 60 µM. The “PKA percent inhibition” value in assay [3] is given as 0%.
`CCCCCCCCCCCCC(=O)N1CCCCC1CNC(=O)CN.Cl` (stereo not shown) [2-Amino-N-([1-(1-oxotridecyl)-2-piperidinyl]methyl)ethanamide hydrochloride]: the “% inhibition @ 100 μM” value in assay [1] is recorded as 21%. The 50% inhibitory concentration (IC50) in assay [2] (setting [4]) is 51 µM. The “PKA percent inhibition” value in assay [3] came to 0%.
As for `CCCCCCCCCCCCC(=O)N1CCCCC1CNC(=O)[C@H](C)N` (stereo partly shown) [2-Amino-N-([1-(1-oxotridecyl)-2-piperidinyl]methyl)propanamide hydrochloride], the “% inhibition @ 100 μM” value in assay [1] was 49%. In addition, the half-inhibitory concentration (IC50) in assay [2] (setting [4]) is 52 µM. The “PKA percent inhibition” value in assay [3] is 0%.
In the case of `CCCCCCCCCCCCC(=O)N1CCCCC1CNC(=O)[C@@H](N)CCCN` (stereo partly shown) [2.5-Diamino-N-([1-(1-oxotridecyl)-2-piperidinyl]methyl)pentanamide dihydrochloride], in assay [2] (setting [4]), the IC50 was found to be 18 µM. In addition, the “PKA percent inhibition” value in assay [3] is listed as 0%.
For `CCCCCCCCCCCC(=O)N1CCC[C@H]1CNC(=O)[C@@H](N)CCCCN` [2.6-Diamino-N-([1-(1-oxododecyl)-2-pyrrolidinyl]methyl)hexanamide dihydrochloride], in that order: 46 µM and 0%.
As to `CCCCCCCCCCCCC(=O)N1CCCCC1CNC(=O)[C@@H](N)CC(=O)OCc1ccccc1` (stereo partly shown) [3-Amino-4-oxo-4-[([1-(1-oxotridecyl)-2-piperidinyl]methyl)amino]butanoic acid phenylmethyl ester hydrochloride], the “% inhibition @ 100 μM” value in assay [1] turned out to be 2%. Further, the half-maximal inhibitory concentration (IC50) in assay [2] (setting [4]) and in assay [2] (setting [5]) was 92 µM in each case. The “PKA percent inhibition” value in assay [3] is given as 0%.
For the compound `CCCCCCCCCCCCC(=O)N1CCCCC1CNC(=O)CCN.O=C(O)/C=C/C(=O)O` (stereo not shown) [3-Amino-N-([1-(1-oxotridecyl)-2-piperidinyl]methyl)propanamide fumarate], in assay [1], the “% inhibition @ 100 μM” value turned out to be 45% and the half-inhibitory concentration (IC50) amounted to 139 µM. Also, the IC50 in assay [2] (setting [4]) was 36 µM. The “PKA percent inhibition” value in assay [3] came out at 0%.
`CCCCCCCCCCCCC(=O)N1CCCCC1CNC(=O)[C@@H](N)CCC(N)=O` (stereo partly shown) [4-Amino-5-oxo-5-[([1-(1-oxotridecyl)-2-piperidinyl]methyl)amino]pentanamide hydrochloride]: the “% inhibition @ 100 μM” value in assay [1] is 17%. For the same compound, the IC50 in assay [2] (setting [4]) is 72 µM. Also, the “PKA percent inhibition” value in assay [3] is 0%.
For `CC1CNCCN1S(=O)(=O)c1cccc2cnccc12` (stereo not shown) [Example H-7, reference compound], the IC50 in assay [2] (setting [4]) amounted to 9 µM; in assay [3] (reference standards only, read-out: PKA IC50 (phosphorylation of histone)), 28 µM.
With `CCCCCCCCCCCCC(=O)N1CCCCC1CNC(=O)C1CCCNC1` (stereo not shown) [N-[([1-Oxotridecyl)-2-piperidinyl]methyl)amino]3-methyloxopiperidine hydrochloride], in assay [1], the “% inhibition @ 100 μM” value is given as 34%. In addition, the IC50 amounted to 157 µM in assay [1] and 29 µM in assay [2] (setting [4]). Further, the “PKA percent inhibition” value in assay [3] turned out to be 0%.
Turning to `CCCCCCCCCCCCC/C=C/[C@@H](O)[C@@H](N)CO` [Sphingosine, reference compound], in assay [2] (setting [4]), the IC50 amounted to 15 µM. In assay [3], the “PKA percent inhibition” value is on record as 88%.

In general, IC50 refers to the concentration needed to halve the response being measured.
